Source: ChEMBL document CHEMBL3525983, “Pharmacokinetics, metabolism, and disposition of rivoglitazone, a novel peroxisome proliferator-activated receptor γ agonist, in rats and monkeys” (Drug Metab Dispos, 2011)

Tests used:
Plasma = test: Drug uptake in monkey plasma assessed as unchanged compound at 1 to 5 mg/kg, po administered as single dose via gavage by LC-MS/MS analysis; type: ADME, organism-based, Macaca mulatta; set-up: dose 1-5 mg/kg, dosed compound name [14C]Rivoglitazone, route oral; conditions: rhesus monkey, in vivo
[1] = Drug excretion in F344/DuCrlCrlj rat feces assessed as unchanged compound at 1 mg/kg, po administered via gavage measured during 0 to 48 hrs by radio-HPLC analysis; type: ADME, organism-based; set-up: dose 1 mg/kg, dosed compound name [14C]Rivoglitazone, route oral; conditions: read-out: Compound recovery
[2] = Drug excretion in bile duct-cannulated rat feces assessed as unchanged compound level administered through intravenous by radio-HPLC analysis; type: ADME; set-up: dosed compound name [14C]Rivoglitazone; conditions: read-out: Compound recovery
[3] = Drug excretion in monkey urine assessed as unchanged compound at 1 mg/kg, po administered via gavage measured during 0 to 72 hrs by radio-HPLC analysis; type: ADME, organism-based, Macaca mulatta; set-up: dose 1 mg/kg, dosed compound name [14C]Rivoglitazone, route oral; conditions: rhesus monkey, read-out: Compound recovery
[4] = Drug excretion in monkey urine/feces assessed as unchanged compound at 1 mg/kg, po administered via gavage measured during 0 to 72 hrs by radio-HPLC analysis; type: ADME, organism-based, Macaca mulatta; set-up: dose 1 mg/kg, dosed compound name [14C]Rivoglitazone, route oral; conditions: rhesus monkey, urine and feces, read-out: Compound recovery
[5] = AUC (0 to t) in monkey at 0.493 mg/kg, po administered via gavage by LC-MS/MS analysis; type: ADME, organism-based, Macaca mulatta; set-up: dose 0.493 mg/kg, dosed compound name [14C]Rivoglitazone, route oral; conditions: rhesus monkey, plasma
[6] = AUC (0 to infinity) in monkey at 0.493 mg/kg, po administered via gavage by LC-MS/MS analysis; type: ADME, organism-based, Macaca mulatta; set-up: time infinity, dose 0.493 mg/kg, dosed compound name [14C]Rivoglitazone, route oral; conditions: rhesus monkey, plasma
[7] = Cmax in monkey at 0.493 mg/kg, po administered via gavage by LC-MS/MS analysis; type: ADME, organism-based, Macaca mulatta; set-up: dose 0.493 mg/kg, dosed compound name [14C]Rivoglitazone, route oral; conditions: rhesus monkey, in vivo
[8] = Tmax in monkey at 0.493 mg/kg, po administered via gavage by LC-MS/MS analysis; type: ADME, organism-based, Macaca mulatta; set-up: dose 0.493 mg/kg, dosed compound name [14C]Rivoglitazone, route oral; conditions: rhesus monkey, in vivo
[9] = Terminal elimination half life in monkey at 0.493 mg/kg, po administered via gavage by LC-MS/MS analysis; type: ADME, organism-based, Macaca mulatta; set-up: dose 0.493 mg/kg, dosed compound name [14C]Rivoglitazone, route oral; conditions: rhesus monkey, in vivo, read-out: beta t1/2 (converted)
[10] = Apparent total clearance in monkey at 0.493 mg/kg, po administered via gavage by LC-MS/MS analysis; type: ADME, organism-based, Macaca mulatta; set-up: dose 0.493 mg/kg, dosed compound name [14C]Rivoglitazone, route oral; conditions: rhesus monkey, in vivo, read-out: CLt/F
[11] = Oral bioavailability in monkey at 0.493 mg/kg administered via gavage by LC-MS/MS analysis; type: ADME, organism-based, Macaca mulatta; set-up: dosed compound name [14C]Rivoglitazone; conditions: rhesus monkey, in vivo
[12] = AUC (0 to t) in monkey at 0.986 mg/kg, po administered via gavage by LC-MS/MS analysis; type: ADME, organism-based, Macaca mulatta; set-up: dose 0.986 mg/kg, dosed compound name [14C]Rivoglitazone, route oral; conditions: rhesus monkey, plasma
[13] = AUC (0 to infinity) in monkey at 0.986 mg/kg, po administered via gavage by LC-MS/MS analysis; type: ADME, organism-based, Macaca mulatta; set-up: time infinity, dose 0.986 mg/kg, dosed compound name [14C]Rivoglitazone, route oral; conditions: rhesus monkey, plasma
[14] = Cmax in monkey at 0.986 mg/kg, po administered via gavage by LC-MS/MS analysis; type: ADME, organism-based, Macaca mulatta; set-up: dose 0.986 mg/kg, dosed compound name [14C]Rivoglitazone, route oral; conditions: rhesus monkey, in vivo
[15] = Terminal elimination half life in monkey at 0.986 mg/kg, po administered via gavage by LC-MS/MS analysis; type: ADME, organism-based, Macaca mulatta; set-up: dose 0.986 mg/kg, dosed compound name [14C]Rivoglitazone, route oral; conditions: rhesus monkey, in vivo, read-out: beta t1/2 (converted)
[16] = Apparent total clearance in monkey at 0.986 mg/kg, po administered via gavage by LC-MS/MS analysis; type: ADME, organism-based, Macaca mulatta; set-up: dose 0.986 mg/kg, dosed compound name [14C]Rivoglitazone, route oral; conditions: rhesus monkey, in vivo, read-out: CLt/F
[17] = Oral bioavailability in monkey at 0.986 mg/kg administered via gavage by LC-MS/MS analysis; type: ADME, organism-based, Macaca mulatta; set-up: dosed compound name [14C]Rivoglitazone; conditions: rhesus monkey, in vivo
[18] = Terminal elimination half life in monkey at 0.986 mg/kg, iv administered via tail vein by LC-MS/MS analysis; type: ADME, organism-based, Macaca mulatta; set-up: dose 0.986 mg/kg, dosed compound name [14C]Rivoglitazone, route intravenous; conditions: rhesus monkey, in vivo, read-out: beta t1/2 (converted)
[19] = AUC (0 to infinity) in F344/DuCrlCrlj rat at 0.1 mg/kg, po administered via gavage by LC-MS/MS analysis; type: ADME, organism-based; set-up: time infinity, dose 0.1 mg/kg, dosed compound name [14C]Rivoglitazone, route oral; conditions: plasma
[20] = Tmax in F344/DuCrlCrlj rat at 0.1 mg/kg, po administered via gavage by LC-MS/MS analysis; type: ADME, organism-based; set-up: dose 0.1 mg/kg, dosed compound name [14C]Rivoglitazone, route oral; conditions: in vivo
[21] = Terminal elimination half life in F344/DuCrlCrlj rat at 0.1 mg/kg, po administered via gavage by LC-MS/MS analysis; type: ADME, organism-based; set-up: dose 0.1 mg/kg, dosed compound name [14C]Rivoglitazone, route oral; conditions: in vivo, read-out: beta t1/2 (converted)
[22] = Oral bioavailability in F344/DuCrlCrlj rat at 0.1 mg/kg administered via gavage by LC-MS/MS analysis; type: ADME, organism-based; set-up: dosed compound name [14C]Rivoglitazone; conditions: in vivo
[23] = AUC (0 to t) in F344/DuCrlCrlj rat at 0.5 mg/kg, po administered via gavage by LC-MS/MS analysis; type: ADME, organism-based; set-up: dose 0.5 mg/kg, dosed compound name [14C]Rivoglitazone, route oral; conditions: plasma
[24] = Oral bioavailability in F344/DuCrlCrlj rat at 0.5 mg/kg administered via gavage by LC-MS/MS analysis; type: ADME, organism-based; set-up: dosed compound name [14C]Rivoglitazone; conditions: in vivo
[25] = Cmax in F344/DuCrlCrlj rat at 1 mg/kg, po administered via gavage by LC-MS/MS analysis; type: ADME, organism-based; set-up: dose 1 mg/kg, dosed compound name [14C]Rivoglitazone, route oral; conditions: in vivo
[26] = Terminal elimination half life in F344/DuCrlCrlj rat at 1 mg/kg, po administered via gavage by LC-MS/MS analysis; type: ADME, organism-based; set-up: dose 1 mg/kg, dosed compound name [14C]Rivoglitazone, route oral; conditions: in vivo, read-out: beta t1/2 (converted)
[27] = Apparent total clearance in F344/DuCrlCrlj rat at 1 mg/kg, po administered via gavage by LC-MS/MS analysis; type: ADME, organism-based; set-up: dose 1 mg/kg, dosed compound name [14C]Rivoglitazone, route oral; conditions: in vivo, read-out: CLt/F
[28] = AUC (0 to infinity) in monkey at 0.0986 mg/kg, po administered via gavage by LC-MS/MS analysis; type: ADME, organism-based, Macaca mulatta; set-up: time infinity, dose 0.0986 mg/kg, dosed compound name [14C]Rivoglitazone, route oral; conditions: rhesus monkey, plasma
[29] = Cmax in monkey at 0.0986 mg/kg, po administered via gavage by LC-MS/MS analysis; type: ADME, organism-based, Macaca mulatta; set-up: dose 0.0986 mg/kg, dosed compound name [14C]Rivoglitazone, route oral; conditions: rhesus monkey, in vivo
[30] = Apparent total clearance in monkey at 0.0986 mg/kg, po administered via gavage by LC-MS/MS analysis; type: ADME, organism-based, Macaca mulatta; set-up: dose 0.0986 mg/kg, dosed compound name [14C]Rivoglitazone, route oral; conditions: rhesus monkey, in vivo, read-out: CLt/F
[31] = AUC (0 to infinity) in monkey at 0.493 mg/kg, iv administered via tail vein by LC-MS/MS analysis; type: ADME, organism-based, Macaca mulatta; set-up: time infinity, dose 0.493 mg/kg, dosed compound name [14C]Rivoglitazone, route intravenous; conditions: rhesus monkey, plasma
[32] = Volume of distribution at steady state in monkey at 0.493 mg/kg, iv administered via tail vein by LC-MS/MS analysis; type: ADME, organism-based, Macaca mulatta; set-up: dose 0.493 mg/kg, dosed compound name [14C]Rivoglitazone, route intravenous; conditions: rhesus monkey, in vivo, read-out: Vdss
[33] = AUC (0 to infinity) in monkey at 0.986 mg/kg, iv administered via tail vein by LC-MS/MS analysis; type: ADME, organism-based, Macaca mulatta; set-up: time infinity, dose 0.986 mg/kg, dosed compound name [14C]Rivoglitazone, route intravenous; conditions: rhesus monkey, plasma
[34] = AUC (0 to t) in F344/DuCrlCrlj rat at 0.1 mg/kg, iv administered via tail vein by LC-MS/MS analysis; type: ADME, organism-based; set-up: dose 0.1 mg/kg, dosed compound name [14C]Rivoglitazone, route intravenous; conditions: plasma
[35] = AUC (0 to infinity) in F344/DuCrlCrlj rat at 0.1 mg/kg, iv administered via tail vein by LC-MS/MS analysis; type: ADME, organism-based; set-up: time infinity, dose 0.1 mg/kg, dosed compound name [14C]Rivoglitazone, route intravenous; conditions: plasma
[36] = Total clearance in F344/DuCrlCrlj rat at 0.1 mg/kg, iv administered via tail vein by LC-MS/MS analysis; type: ADME, organism-based; set-up: dose 0.1 mg/kg, dosed compound name [14C]Rivoglitazone, route intravenous; conditions: in vivo
[37] = Volume of distribution at steady state in F344/DuCrlCrlj rat at 0.1 mg/kg, iv administered via tail vein by LC-MS/MS analysis; type: ADME, organism-based; set-up: dose 0.1 mg/kg, dosed compound name [14C]Rivoglitazone, route intravenous; conditions: in vivo, read-out: Vdss
[38] = AUC (0 to infinity) in F344/DuCrlCrlj rat at 0.5 mg/kg, iv administered via tail vein by LC-MS/MS analysis; type: ADME, organism-based; set-up: time infinity, dose 0.5 mg/kg, dosed compound name [14C]Rivoglitazone, route intravenous; conditions: plasma
[39] = Terminal elimination half life in F344/DuCrlCrlj rat at 0.5 mg/kg, iv administered via tail vein by LC-MS/MS analysis; type: ADME, organism-based; set-up: dose 0.5 mg/kg, dosed compound name [14C]Rivoglitazone, route intravenous; conditions: in vivo, read-out: beta t1/2 (converted)
[40] = Total clearance in monkey at 0.0986 mg/kg, iv administered via tail vein by LC-MS/MS analysis; type: ADME, organism-based, Macaca mulatta; set-up: dose 0.0986 mg/kg, dosed compound name [14C]Rivoglitazone, route intravenous; conditions: rhesus monkey, in vivo
[41] = Volume of distribution at steady state in monkey at 0.0986 mg/kg, iv administered via tail vein by LC-MS/MS analysis; type: ADME, organism-based, Macaca mulatta; set-up: dose 0.0986 mg/kg, dosed compound name [14C]Rivoglitazone, route intravenous; conditions: rhesus monkey, in vivo, read-out: Vdss
[42] = Retention time of the compound by LC-MS/MS analysis; type: physicochemical; set-up: dosed compound name [14C]Rivoglitazone

Structure (SMILES): COc1ccc2nc(COc3ccc(CC4SC(=O)NC4=O)cc3)n(C)c2c1.Cl (racemic)
- Compound recovery (Plasma): metabolite_detected
- dose excreted [1]: 23.7%
- dose excreted [2]: 2.3%
- dose excreted [3]: 0.3%
- dose excreted [4]: 23.8%
- AUC(0-t) [5]: 17200 ng·h/mL
- AUC(0-inf) [6]: 17700 ng·h/mL
- Cmax [7]: 1330 ng/mL
- Tmax [8]: 4.25 h
- half-life [9]: 7.56 h
- CL/F [10]: 0.485 mL/min/kg
- bioavailability [11]: 90.4%
- AUC(0-t) [12]: 35800 ng·h/mL
- AUC(0-inf) [13]: 43100 ng·h/mL
- Cmax [14]: 2930 ng/mL
- half-life [15]: 7.34 h
- CL/F [16]: 0.41 mL/min/kg
- bioavailability [17]: 76.1%
- half-life [18]: 6.79 h
- AUC(0-inf) [19]: 4450 ng·h/mL
- Tmax [20]: 3.25 h
- half-life [21]: 4.35 h
- bioavailability [22]: 98.1%
- AUC(0-t) [23]: 21000 ng·h/mL
- bioavailability [24]: 95%
- Cmax [25]: 4570 ng/mL
- half-life [26]: 4.5 h
- CL/F [27]: 0.304 mL/min/kg
- AUC(0-inf) [28]: 4470 ng·h/mL
- Cmax [29]: 242 ng/mL
- CL/F [30]: 0.432 mL/min/kg
- AUC(0-inf) [31]: 23500 ng·h/mL
- Vd [32]: 0.155 L/kg
- AUC(0-inf) [33]: 57200 ng·h/mL
- AUC(0-t) [34]: 4530 ng·h/mL
- AUC(0-inf) [35]: 4670 ng·h/mL
- clearance [36]: 0.329 mL/min/kg
- Vd [37]: 0.125 L/kg
- AUC(0-inf) [38]: 22900 ng·h/mL
- half-life [39]: 4.84 h
- clearance [40]: 0.312 mL/min/kg
- Vd [41]: 0.166 L/kg
- Retention_time [42]: 23 min
